According to article PMC11243598, “Inhibition of Monoamine Oxidases by Pyridazinobenzylpiperidine Derivatives” (Molecules, 2024):

Assays:
MAO-B = molecular target: T1, MAO-B (Homo sapiens, UniProt P27338); experiment: biochemical; conditions: for remaining activity at 10 µM: read-out: Residual Activity at 10 µM (%) MAO-B
T1 sequence (P27338 1-520): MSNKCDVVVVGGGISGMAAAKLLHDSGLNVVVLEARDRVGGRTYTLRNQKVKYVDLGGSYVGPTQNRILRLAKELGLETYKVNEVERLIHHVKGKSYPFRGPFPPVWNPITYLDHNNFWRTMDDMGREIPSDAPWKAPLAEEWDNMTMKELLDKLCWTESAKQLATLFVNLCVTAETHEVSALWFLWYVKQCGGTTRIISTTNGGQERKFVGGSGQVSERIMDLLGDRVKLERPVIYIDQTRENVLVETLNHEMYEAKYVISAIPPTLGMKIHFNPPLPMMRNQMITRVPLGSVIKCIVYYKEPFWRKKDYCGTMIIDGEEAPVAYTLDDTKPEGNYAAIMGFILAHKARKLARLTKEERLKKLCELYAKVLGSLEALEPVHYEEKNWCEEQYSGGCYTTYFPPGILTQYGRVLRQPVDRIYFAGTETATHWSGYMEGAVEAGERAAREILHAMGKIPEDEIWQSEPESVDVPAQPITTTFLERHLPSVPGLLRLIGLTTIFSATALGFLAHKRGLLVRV

hMAO-A = molecular target: T2, hMAO-A (Homo sapiens, UniProt P21397); experiment: Inhibition of recombinant hMAO-A, kynuramine substrate, continuous absorbance method; conditions: for remaining activity at 10 µM: read-out: Residual Activity at 10 µM (%) MAO-A
T2 sequence (P21397 1-527): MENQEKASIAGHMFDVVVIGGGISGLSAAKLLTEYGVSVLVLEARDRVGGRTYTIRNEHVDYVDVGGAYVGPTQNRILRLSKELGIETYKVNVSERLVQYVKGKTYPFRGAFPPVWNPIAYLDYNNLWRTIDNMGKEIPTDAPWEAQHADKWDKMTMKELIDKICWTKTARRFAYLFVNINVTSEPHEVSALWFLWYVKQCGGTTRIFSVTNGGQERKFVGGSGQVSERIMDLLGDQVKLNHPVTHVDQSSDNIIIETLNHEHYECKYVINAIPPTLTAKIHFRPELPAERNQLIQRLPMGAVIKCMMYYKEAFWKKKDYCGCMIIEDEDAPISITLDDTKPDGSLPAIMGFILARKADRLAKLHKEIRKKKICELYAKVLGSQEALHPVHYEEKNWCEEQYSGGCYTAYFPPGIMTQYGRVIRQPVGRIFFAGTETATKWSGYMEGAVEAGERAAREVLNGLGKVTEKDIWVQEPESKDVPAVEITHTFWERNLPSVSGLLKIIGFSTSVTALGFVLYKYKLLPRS

IC50 (MAO-B) | remaining activity at 10 µM (MAO-B) | IC50 (hMAO-A) | remaining activity at 10 µM (hMAO-A) | Structure (SMILES)
7.05 ± 0.086 µM | 36.5 ± 8.32% | 16.47 ± 0.047 µM | 63.4 ± 2.24% | O=C(Cn1nc(N2CCC(Cc3ccccc3)CC2)ccc1=O)NN=Cc1ccccc1 [Compound S1]
10.7 ± 0.565 µM | 56.5 ± 4.99% | 10.9 ± 1.19 µM | 54.8 ± 3.1% | O=C(Cn1nc(N2CCC(Cc3ccccc3)CC2)ccc1=O)NN=Cc1ccc(Br)cc1 [Compound S2]
4.75 ± 0.155 µM | 50.59 ± 0.01% | 4.13 ± 1.12 µM | 34.4 ± 1.93% | O=C(Cn1nc(N2CCC(Cc3ccccc3)CC2)ccc1=O)NN=Cc1ccccc1Br [Compound S3, N′-2-bromobenzylidene-2-(3-(4-benzylpiperidin-1-yl)-6-oxopyridazin-1(6H)-yl)acetohydrazide]
6.17 ± 0.155 µM | 33.5 ± 2.5% | 27 ± 0.797 µM | 56.9 ± 9.78% | O=C(Cn1nc(N2CCC(Cc3ccccc3)CC2)ccc1=O)NN=Cc1cccc(Br)c1 [Compound S4, N′-3-bromobenzylidene-2-(3-(4-benzylpiperidin-1-yl)-6-oxopyridazin-1(6H)-yl)acetohydrazide]
4.95 ± 0.353 µM | 26.7 ± 3.83% | 7.14 ± 1.07 µM | 42.2 ± 3.22% | O=C(Cn1nc(N2CCC(Cc3ccccc3)CC2)ccc1=O)NN=Cc1ccc(Cl)cc1 [Compound S6]
1.711 ± 0.009 µM | 1.03 ± 4.63% | 4.74 ± 0.624 µM | 12.8 ± 7.24% | O=C(Cn1nc(N2CCC(Cc3ccccc3)CC2)ccc1=O)NN=Cc1cccc(F)c1 [Compound S7, N′-3-fluorobenzylidene-2-(3-(4-benzylpiperidin-1-yl)-6-oxopyridazin-1(6H)-yl)acetohydrazide]
5.37 ± 0.123 µM | 31.9 ± 2.62% | 7.99 ± 1.28 µM | 22.4 ± 3.07% | O=C(Cn1nc(N2CCC(Cc3ccccc3)CC2)ccc1=O)NN=Cc1ccc(F)cc1 [Compound S8]
7.24 ± 0.994 µM | 32.9 ± 5.19% | 4.51 ± 0.589 µM | 23.2 ± 1.2% | Cc1ccccc1C=NNC(=O)Cn1nc(N2CCC(Cc3ccccc3)CC2)ccc1=O [Compound S9, N′-2-methylbenzylidene-2-(3-(4-benzylpiperidin-1-yl)-6-oxopyridazin-1(6H)-yl)acetohydrazide]
3.549 ± 0.001 µM | 9.31 ± 2.04% | 4.53 ± 0.424 µM | 16.1 ± 4.26% | Cc1cccc(C=NNC(=O)Cn2nc(N3CCC(Cc4ccccc4)CC3)ccc2=O)c1 [Compound S10, N′-3-methylbenzylidene-2-(3-(4-benzylpiperidin-1-yl)-6-oxopyridazin-1(6H)-yl)acetohydrazide]
1.71 ± 0.437 µM | 14.5 ± 1.14% | 5.064 ± 0.006 µM | 16.6 ± 9.23% | COc1cccc(C=NNC(=O)Cn2nc(N3CCC(Cc4ccccc4)CC3)ccc2=O)c1 [Compound S11]
6.463 ± 0.035 µM | 38.46 ± 0.36% | 4.642 ± 0.001 µM | 7.71 ± 8.25% | COc1ccc(C=NNC(=O)Cn2nc(N3CCC(Cc4ccccc4)CC3)ccc2=O)cc1 [Compound S12]
6.48 ± 0.559 µM | 37.6 ± 2.5% | 5.63 ± 1.18 µM | 36.1 ± 1.01% | CN(C)c1ccc(C=NNC(=O)Cn2nc(N3CCC(Cc4ccccc4)CC3)ccc2=O)cc1 [Compound S13]
3.62 ± 0.54 µM | 39.8 ± 4.14% | 24.2 ± 0.283 µM | 67.1 ± 5.19% | O=C(Cn1nc(N2CCC(Cc3ccccc3)CC2)ccc1=O)NN=Cc1ccc([N+](=O)[O-])cc1 [Compound S14]
